The target in test [1] is Protein-tyrosine kinase 2-beta (Homo sapiens, UniProt Q14289). Briefly: Inhibition of human recombinant PYK2 by ESI-MS analysis.
The target of test [2] is T1, Tyrosine-protein kinase ZAP-70 (Homo sapiens, UniProt P43403).
T1 sequence (P43403 whole entry): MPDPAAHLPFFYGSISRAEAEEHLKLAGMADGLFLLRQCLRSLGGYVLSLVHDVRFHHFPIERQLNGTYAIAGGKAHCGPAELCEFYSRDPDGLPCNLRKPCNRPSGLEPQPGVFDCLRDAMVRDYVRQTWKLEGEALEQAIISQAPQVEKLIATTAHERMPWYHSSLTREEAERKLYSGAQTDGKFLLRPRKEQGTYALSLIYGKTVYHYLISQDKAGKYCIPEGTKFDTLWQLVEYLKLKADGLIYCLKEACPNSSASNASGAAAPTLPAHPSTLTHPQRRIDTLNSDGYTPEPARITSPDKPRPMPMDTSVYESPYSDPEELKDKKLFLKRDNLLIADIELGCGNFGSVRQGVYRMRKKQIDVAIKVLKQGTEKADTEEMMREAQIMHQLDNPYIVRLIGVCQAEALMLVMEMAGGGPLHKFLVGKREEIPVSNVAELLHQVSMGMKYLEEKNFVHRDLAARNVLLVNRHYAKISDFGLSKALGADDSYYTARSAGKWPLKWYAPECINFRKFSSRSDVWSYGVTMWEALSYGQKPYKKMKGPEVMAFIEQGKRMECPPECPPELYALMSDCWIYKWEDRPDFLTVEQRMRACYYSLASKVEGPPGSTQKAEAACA
The experiment in a line: Inhibition of human recombinant ZAP70 using EEEEYEEEE as substrate by ESI-MS analysis.

Test [3] has as its target Cyclin-dependent kinase 2/cyclin E1 (Homo sapiens, UniProt P24941). The experiment in a line: Inhibition of human recombinant CDK2/CycE using HHASPRK as substrate by ESI-MS analysis. It counts as protein-complex assay.

Protein-tyrosine kinase 2-beta, sequence (Q14289 whole entry): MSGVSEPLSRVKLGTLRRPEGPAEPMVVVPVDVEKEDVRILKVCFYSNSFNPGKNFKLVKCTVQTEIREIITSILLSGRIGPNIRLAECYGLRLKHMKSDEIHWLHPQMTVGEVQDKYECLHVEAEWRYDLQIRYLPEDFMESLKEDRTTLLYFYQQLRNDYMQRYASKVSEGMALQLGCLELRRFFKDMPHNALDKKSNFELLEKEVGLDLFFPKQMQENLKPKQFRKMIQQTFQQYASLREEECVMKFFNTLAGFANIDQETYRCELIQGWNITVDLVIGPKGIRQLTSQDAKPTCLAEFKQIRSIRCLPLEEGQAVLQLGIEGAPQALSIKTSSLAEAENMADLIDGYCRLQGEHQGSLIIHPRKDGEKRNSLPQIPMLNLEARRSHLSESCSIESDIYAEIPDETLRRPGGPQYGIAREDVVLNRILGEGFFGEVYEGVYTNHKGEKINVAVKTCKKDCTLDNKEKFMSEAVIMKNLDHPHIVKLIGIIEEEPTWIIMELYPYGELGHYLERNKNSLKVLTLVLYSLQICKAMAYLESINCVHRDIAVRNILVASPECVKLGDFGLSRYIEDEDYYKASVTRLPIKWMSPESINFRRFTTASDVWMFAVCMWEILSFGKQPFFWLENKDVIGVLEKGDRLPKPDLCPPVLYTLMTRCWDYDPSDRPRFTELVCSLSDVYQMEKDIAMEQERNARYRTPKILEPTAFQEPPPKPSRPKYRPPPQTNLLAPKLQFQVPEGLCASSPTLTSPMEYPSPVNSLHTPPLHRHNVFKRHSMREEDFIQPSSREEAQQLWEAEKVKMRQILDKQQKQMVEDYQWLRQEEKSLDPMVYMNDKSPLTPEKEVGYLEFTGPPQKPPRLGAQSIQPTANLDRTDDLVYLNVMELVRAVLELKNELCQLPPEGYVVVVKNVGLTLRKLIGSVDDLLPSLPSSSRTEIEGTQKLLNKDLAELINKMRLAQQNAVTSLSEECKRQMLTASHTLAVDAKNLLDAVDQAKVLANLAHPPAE

Usually Ki stands for a measure of affinity in units of concentration, obtained from inhibition or displacement. On to `NS(=O)(=O)c1ccc(Nc2nc(OCC3CCCCC3)c3nc[nH]c3n2)cc1`, for which the Ki in test [1] and in test [2] was greater than 10000 nM each time.
As for `CCCCc1c(-c2ccc(OC)cc2)[nH]c2nccnc12` [ALOISINE], the inhibition constant (Ki) is 0.525 nM in test [3], 933 nM in test [1] and 2630 nM in test [2].
As for `Cc1[nH]c(/C=C2\C(=O)Nc3ccc(S(=O)(=O)N(C)c4cccc(Cl)c4)cc32)c(C)c1C(=O)N1CCN(C)CC1`, the figures for the Ki in test [3], in test [1] and in test [2] were 490 nM, 10.5 nM and greater than 10000 nM, respectively.
On to `N#CC(C#N)=Cc1ccc(O)c(O)c1` [TYRPHOSTIN 23], for which, in test [3], the Ki was 617 nM.
Take `NS(=O)(=O)c1ccc(N/N=C2\C(=O)Nc3ccc(Br)cc32)cc1`: the Ki in test [1] and in test [2] was greater than 10000 nM throughout.
On to `CN(C)c1ncnc2nc[nH]c12` [DIMETHYLADENINE], for which the figures for the inhibitory constant (Ki) in test [3], in test [1] and in test [2] were 1100 nM, greater than 10000 nM and greater than 10000 nM, respectively.
Turning to `O=C1C(C2=C3C(=Nc4ccccc43)/C(=C\c3ccc(O)cc3)C2=O)=C2C(=Nc3ccccc32)/C1=C\c1ccc(O)cc1` [SCYTONEMIN], the Ki in test [3] is 372 nM; in test [1], greater than 10000 nM; in test [2] it was 1550 nM.
